Positions of bridges follow the written chain, without caps; N, C: chain ends. Non-standard residues stand in square brackets, D forms with d. Residues, ends and D or L forms follow the SMILES beside them. *: point of attachment. Ileψ(thiazoline)Cys = CC[C@H](C)[C@H](N)C1=N[C@H](C(=O)*)CS1; Sta = CC(C)C[C@H](N)[C@@H](O)CC(=O)O; dOrn = NCCC[C@@H](N)C(=O)O; Isovaleryl = CC(C)CC(=O)*
Tests used:
[1] = system: endopeptidase from the skin of Xenopus laevis; assay: Inhibitor studies: enzyme preincubated with inhibitor, then cleavage of substrate peptide read on acid gel; assay type: biochemical; settings: for % INHIBITION: substrate magainin 2-amide; for effect of proteinase inhibitor on enzyme activity (in words): summary of Table 2
Procedure: Reaction buffer consisted of 20 mM Na phosphate, 50 mM NaCl final concentration. After quenching the reaction with 0.5 volume of glacial acetic acid, a 15 μl aliquot of each reaction was analyzed by acidic gel electrophoresis. […]
Inhibitor studies were conducted in the same fashion; the only difference involved first incubating the enzyme with each inhibitor tested at a particular concentration in the absence of any substrate for one hour at room temperature. Substrate was then added to the reaction and allowed to incubate for an additional hour at room temperature.
ACIDIC GEL ELECTROPHORESIS--Acidic gels (pH 4) were prepared and run as originally described (Gabriel, 1971) with several modifications. The gel solution consisted of a final concentration of 15% (v/v) acrylamide (acrylamide:bisacrylamide/37.5:1), 88 mM KOH, 3% (v/v) glacial acetic acid, 0.75% (v/v) […] (Temed), 0.375% ammonium persulfate (30 mg/ml). Before loading samples, 0.5 volume of glacial acetic acid was added, as well as 0.5 volume of 0.1% Pyronin Y loading dye. MINI PROTEAN gel apparatus (Biorad, Richmond, Calif.) were used and gels electrophoresed at 200 volts in running buffer containing 0.035M β-alanine and glacial acetic acid (2.45 ml/l), pH 4.0. Gels were stained in 0.1% (w/v) Coomassie Brilliant Blue R-250 (Sigma), 50% methanol, 50% water and destained in distilled water.

[2] = system: endopeptidase from the skin of Xenopus laevis; assay: Substrate specificity analyses: cleavage of peptides and analogues by the purified endopeptidase (acid gel, HPLC/amino acid analysis); assay type: biochemical; settings: 50 μg peptide, one hour, room temperature
Procedure: ENZYME ASSAYS--Activity was monitored by incubating 0.1-10 μl of each chromatographic fraction with 50 μg of magainin 2-amide substrate in a total volume of 100 μl for one hour at room temperature. Reaction buffer consisted of 20 mM Na phosphate, 50 mM NaCl final concentration. After quenching the reaction with 0.5 volume of glacial acetic acid, a 15 μl aliquot of each reaction was analyzed by acidic gel electrophoresis. One unit of enzyme activity is defined as the amount of enzyme required to convert 25 μg of magainin 2-amide substrate into half-peptide products under the above conditions.
Substrate specificity analyses were carried out as described above except that 50 μg of each substrate analogue under investigation was substituted for magainin 2-amide in the incubation at the same concentration.
Before loading samples, 0.5 volume of glacial acetic acid was added, as well as 0.5 volume of 0.1% Pyronin Y loading dye. […]
100 μl reactions were injected into a Beckman HPLC System Gold instrument and run on a C18 reversed phase column (4.6×220 mm, Aquapore OD-300, Applied Biosystems, Foster City, Calif.). […] Portions of the resuspended sample were injected into an amino acid analyzer with automated hydrolysis (model 420/130, Applied Biosystems, Foster City, Calif.), and numerical calculations for specific amino acids were determined using an Applied Biosystems 920A data analysis module.

[3] = inhibitor 1 mM, one unit endopeptidase preincubated one hour

c1cnc2c(c1)ccc1cccnc12 [1,10-Phenanthroline, 1,10-phenanthroline]
% INHIBITION ([1]; inhibitor 0.2 mM): 70% | % INHIBITION ([1]; inhibitor 2 mM): 100% | % INHIBITION ([1]; inhibitor 20 mM): 100% | effect of proteinase inhibitor on enzyme activity (in words) [1]: substantially inhibited enzyme activity

CC[C@H](C)[C@H](N)C1=N[C@H](C(=O)N[C@@H](CC(C)C)C(=O)N[C@H](CCC(=O)O)C(=O)N[C@H](C(=O)N[C@H]2CCCCNC(=O)[C@H](CC(N)=O)NC(=O)[C@@H](CC(=O)O)NC(=O)[C@H](Cc3cnc[nH]3)NC(=O)[C@@H](Cc3ccccc3)NC(=O)[C@H]([C@@H](C)CC)NC(=O)[C@@H](CCCN)NC2=O)[C@@H](C)CC)CS1 [Bacitracin, bacitracin] ({Ileψ(thiazoline)Cys}-L[dE]IK[dOrn]I[dF]H[dD]N; lactam 4-C)
% INHIBITION ([1]; inhibitor 1 mg/ml): 0% | effect of proteinase inhibitor on enzyme activity (in words) [1]: no effect on endoproteolysis

CC(C)C[C@H](NC(=O)[C@H]1O[C@@H]1C(=O)O)C(=O)NCCCCN=C(N)N [E-64, N-[N-(L-3-trans-carboxyoxiran-2-carbonyl)-L-leucyl]-agmatine]
% INHIBITION ([1]; inhibitor 300 μM): 0% | effect of proteinase inhibitor on enzyme activity (in words) [1]: no effect on enzyme activity

O=C(O)CN(CCN(CC(=O)O)CC(=O)O)CC(=O)O [EDTA, ethylenediaminetetraacetic acid]
% INHIBITION ([1]; inhibitor 0.5 mM): 25% | % INHIBITION ([1]; inhibitor 5 mM): 25% | % INHIBITION ([1]; inhibitor 50 mM): 50% | effect of proteinase inhibitor on enzyme activity (in words) [1]: substantially inhibited enzyme activity

CC(=O)N[C@@H](CC(C)C)C(=O)N[C@@H](CC(C)C)C(=O)N[C@H](C=O)CCCNC(=N)N [Leupeptin, leupeptin]
% INHIBITION [1, 3]: 0% | effect of proteinase inhibitor on enzyme activity (in words) [1]: no effect on enzyme activity

O=S(=O)(F)Cc1ccccc1 [PMSF, phenylmethanesulfonyl fluoride]
% INHIBITION ([1]; inhibitor 10 mM): 0% | effect of proteinase inhibitor on enzyme activity (in words) [1]: no effect on enzyme activity

CC(C)CC(=O)N[C@H](C(=O)N[C@H](C(=O)N[C@@H](CC(C)C)[C@@H](O)CC(=O)N[C@@H](C)C(=O)N[C@@H](CC(C)C)[C@@H](O)CC(=O)O)C(C)C)C(C)C [Pepstatin, pepstatin] (Isovaleryl-VV[Sta]A[Sta]-OH)
% INHIBITION ([1]; inhibitor 100 μm, one unit endopeptidase preincubated one hour): 0% | effect of proteinase inhibitor on enzyme activity (in words) [1]: no effect on enzyme activity

CC(C)C[C@H](NP(=O)(O)O[C@@H]1O[C@@H](C)[C@H](O)[C@@H](O)[C@H]1O)C(=O)N[C@@H](Cc1c[nH]c2ccccc12)C(=O)O [Phosphoramidon, phosphoramidon]
% INHIBITION ([1]; inhibitor 1 μM): 0% | % INHIBITION ([1]; inhibitor 100 μM): 0% | effect of proteinase inhibitor on enzyme activity (in words) [1]: no effect on endoproteolysis

CC[C@H](C)[C@H](NC(=O)CN)C(=O)NCC(=O)N[C@@H](C)C(=O)N[C@H](C(=O)N[C@@H](CC(C)C)C(=O)N[C@@H](CCCCN)C(=O)N[C@H](C(=O)N[C@@H](CC(C)C)C(=O)N[C@H](C(=O)N[C@H](C(=O)NCC(=O)N[C@@H](CC(C)C)C(=O)N1CCC[C@H]1C(=O)N[C@@H](C)C(=O)N[C@@H](CC(C)C)C(=O)N[C@H](C(=O)N[C@@H](CO)C(=O)N[C@@H](Cc1c[nH]c2ccccc12)C(=O)N[C@H](C(=O)N[C@@H](CCCCN)C(=O)N[C@@H](CCCNC(=N)N)C(=O)N[C@@H](CCCCN)C(=O)N[C@@H](CCCNC(=N)N)C(=O)N[C@@H](CCC(N)=O)C(=O)N[C@@H](CCC(N)=O)C(N)=O)[C@@H](C)CC)[C@@H](C)CC)[C@@H](C)O)[C@@H](C)O)C(C)C)C(C)C [melittin]
cleavage of the peptide by the endopeptidase (in words) [2]: do not serve as substrates | inhibition of cleavage of magainin 2 ([1]; preincubation with tenfold molar excess of peptide, substrate magainin 2): approximately 25%

K11R: magainin 1 analogue constituting the replacement of all lysines with arginines
cleavage of the peptide by the endopeptidase (in words) [2]: effectively served as a substrate

tosyl-L-phenylalanine chloromethyl ketone [TPCK]
% INHIBITION [1, 3]: 0% | effect of proteinase inhibitor on enzyme activity (in words) [1]: no effect on enzyme activity

Source: patent publication US5518912A, “Endopeptidase” (priority 1993, dated 1996)
